{"source": "patent US20130072430A1", "about": "“METHODS FOR TREATMENT OR PROPHYLAXIS OF KIDNEY OR LIVER DYSFUNCTION” (NPS PHARMACEUTICALS, INC., priority 2010, published 2013)", "test_system": "Human patients with short bowel syndrome", "experiment": "Example 1: kidney diagnostic biomarkers (urea nitrogen, creatinine, GFR) in short bowel syndrome patients, every four weeks for 24 weeks", "assay_type": "in vivo", "set-up": "CREATININE (RATE BLANKED) Change from Baseline, Median / GFR, Median / GFR Change from Baseline, Median / UREA NITROGEN, Median / UREA NITROGEN Change from Baseline, Median: unit not given here", "details": "for CREATININE (RATE BLANKED), Median: unit assumed", "description": "Human patients with short bowel syndrome were divided into three groups: a control group (16 total individuals) to receive placebo, an experimental group (35 total individuals) to receive teduglutide at 0.05 mg/kg/day throughout the study, and an experimental group (32 total individuals) to receive teduglutide at 0.1 mg/kg/day throughout the study. Patients were treated by subcutaneous injection of placebo or the appropriate dose of teduglutide. As individuals with short bowel syndrome are likely to experience associated liver and kidney disease, known biomarkers of liver and kidney function were monitored every four weeks, for 24 weeks. The liver biomarkers tested included total bilirubin, ALT and AST and ALP. The kidney biomarkers tested included urea nitrogen, creatinine and GFR. Before administration of placebo or teduglutide, diagnostic biomarker levels were tested to establish a baseline for each individual.\nTo visualize the effect of GLP-2 on the levels of the diagnostic biomarkers, the average change from baseline was calculated for the placebo and teduglutide treated groups for each visit after a baseline was established. The average change from baseline of each group is depicted in FIGS. […]. The numerical figures for each diaanostic biomarker at each time point are depicted in Table 1.\nThe raw data for this sorting is reproduced in Table 2 below.", "data": [{"smiles": "CC[C@H](C)[C@H](NC(=O)[C@H](Cc1ccccc1)NC(=O)[C@H](CC(=O)O)NC(=O)[C@H](CCCNC(=N)N)NC(=O)[C@H](C)NC(=O)[C@H](C)NC(=O)[C@H](CC(C)C)NC(=O)[C@H](CC(N)=O)NC(=O)[C@H](CC(=O)O)NC(=O)[C@H](CC(C)C)NC(=O)[C@@H](NC(=O)[C@@H](NC(=O)[C@H](CC(N)=O)NC(=O)[C@H](CCSC)NC(=O)[C@H](CCC(=O)O)NC(=O)[C@H](CC(=O)O)NC(=O)[C@H](CO)NC(=O)[C@H](Cc1ccccc1)NC(=O)[C@H](CO)NC(=O)CNC(=O)[C@H](CC(=O)O)NC(=O)CNC(=O)[C@@H](N)Cc1c[nH]cn1)[C@@H](C)O)[C@@H](C)CC)C(=O)N[C@@H](CC(N)=O)C(=O)N[C@@H](Cc1c[nH]c2ccccc12)C(=O)N[C@@H](CC(C)C)C(=O)N[C@H](C(=O)N[C@@H](CCC(N)=O)C(=O)N[C@H](C(=O)N[C@@H](CCCCN)C(=O)N[C@H](C(=O)N[C@H](C(=O)N[C@@H](CC(=O)O)C(=O)O)[C@@H](C)O)[C@@H](C)CC)[C@@H](C)O)[C@@H](C)CC", "note": "[teduglutide]", "values": [{"measurement": "GFR Change from Baseline, Mean (SD)", "setting": "0.05 mg/kg/day, DW24", "value": "3.7 (12.81)"}, {"measurement": "GFR Change from Baseline, Median", "setting": "0.05 mg/kg/day, DW24", "value": 1.7}, {"measurement": "GFR, Mean (SD)", "setting": "0.05 mg/kg/day, DW24", "value": "89.7 (41.28)"}, {"measurement": "GFR, Median", "setting": "0.05 mg/kg/day, DW24", "value": 78.1}, {"measurement": "UREA NITROGEN Change from Baseline, Mean (SD)", "setting": "0.05 mg/kg/day, DW24", "value": "−0.6 (2.02)"}, {"measurement": "UREA NITROGEN Change from Baseline, Median", "setting": "0.05 mg/kg/day, DW24", "value": "−0.7"}, {"measurement": "UREA NITROGEN, Mean (SD)", "setting": "0.05 mg/kg/day, DW24", "value": "5.0 (1.88)"}, {"measurement": "UREA NITROGEN, Median", "setting": "0.05 mg/kg/day, DW24", "value": 4.9}, {"measurement": "CREATININE (RATE BLANKED), Median", "setting": "0.05 mg/kg/day, DW24", "value": 80, "unit": "µmol/L"}, {"measurement": "CREATININE (RATE BLANKED) Change from Baseline, Mean (SD)", "setting": "0.10 mg/kg/day, DW4", "value": "−1.8 (10.49)"}, {"measurement": "CREATININE (RATE BLANKED) Change from Baseline, Median", "setting": "0.10 mg/kg/day, DW4", "value": "−0.5"}, {"measurement": "CREATININE (RATE BLANKED), Mean (SD)", "setting": "0.10 mg/kg/day, DW4", "value": "81.0 (21.62)"}, {"measurement": "GFR Change from Baseline, Mean (SD)", "setting": "0.10 mg/kg/day, DW4", "value": "3.6 (11.81)"}, {"measurement": "GFR Change from Baseline, Median", "setting": "0.10 mg/kg/day, DW4", "value": 3.1}, {"measurement": "GFR, Mean (SD)", "setting": "0.10 mg/kg/day, DW4", "value": "80.3 (25.98)"}, {"measurement": "GFR, Median", "setting": "0.10 mg/kg/day, DW4", "value": 75.6}, {"measurement": "UREA NITROGEN Change from Baseline, Mean (SD)", "setting": "0.10 mg/kg/day, DW4", "value": "0.3 (1.22)"}, {"measurement": "UREA NITROGEN Change from Baseline, Median", "setting": "0.10 mg/kg/day, DW4", "value": 0.2}, {"measurement": "UREA NITROGEN, Mean (SD)", "setting": "0.10 mg/kg/day, DW4", "value": "6.4 (2.19)"}, {"measurement": "UREA NITROGEN, Median", "setting": "0.10 mg/kg/day, DW4", "value": 6.3}, {"measurement": "CREATININE (RATE BLANKED), Median", "setting": "0.10 mg/kg/day, DW4", "value": 83, "unit": "µmol/L"}, {"measurement": "CREATININE (RATE BLANKED) Change from Baseline, Mean (SD)", "setting": "0.10 mg/kg/day, DW8", "value": "1.2 (10.40)"}, {"measurement": "CREATININE (RATE BLANKED) Change from Baseline, Median", "setting": "0.10 mg/kg/day, DW8", "value": 0.0}, {"measurement": "CREATININE (RATE BLANKED), Mean (SD)", "setting": "0.10 mg/kg/day, DW8", "value": "84.2 (21.41)"}, {"measurement": "GFR Change from Baseline, Mean (SD)", "setting": "0.10 mg/kg/day, DW8", "value": "0.6 (10.87)"}, {"measurement": "GFR Change from Baseline, Median", "setting": "0.10 mg/kg/day, DW8", "value": 0.2}, {"measurement": "GFR, Mean (SD)", "setting": "0.10 mg/kg/day, DW8", "value": "77.9 (25.63)"}, {"measurement": "GFR, Median", "setting": "0.10 mg/kg/day, DW8", "value": 76.9}, {"measurement": "UREA NITROGEN Change from Baseline, Mean (SD)", "setting": "0.10 mg/kg/day, DW8", "value": "0.2 (1.20)"}, {"measurement": "UREA NITROGEN Change from Baseline, Median", "setting": "0.10 mg/kg/day, DW8", "value": 0.1}, {"measurement": "UREA NITROGEN, Mean (SD)", "setting": "0.10 mg/kg/day, DW8", "value": "6.4 (2.00)"}, {"measurement": "UREA NITROGEN, Median", "setting": "0.10 mg/kg/day, DW8", "value": 6.4}, {"measurement": "CREATININE (RATE BLANKED), Median", "setting": "0.10 mg/kg/day, DW8", "value": 86, "unit": "µmol/L"}, {"measurement": "CREATININE (RATE BLANKED) Change from Baseline, Mean (SD)", "setting": "0.10 mg/kg/day, DW12", "value": "2.8 (12.77)"}, {"measurement": "CREATININE (RATE BLANKED) Change from Baseline, Median", "setting": "0.10 mg/kg/day, DW12", "value": 6.5}, {"measurement": "CREATININE (RATE BLANKED), Mean (SD)", "setting": "0.10 mg/kg/day, DW12", "value": "86.4 (25.37)"}, {"measurement": "GFR Change from Baseline, Mean (SD)", "setting": "0.10 mg/kg/day, DW12", "value": "0.2 (15.54)"}, {"measurement": "GFR Change from Baseline, Median", "setting": "0.10 mg/kg/day, DW12", "value": "−0.5"}, {"measurement": "GFR, Mean (SD)", "setting": "0.10 mg/kg/day, DW12", "value": "77.3 (25.57)"}, {"measurement": "GFR, Median", "setting": "0.10 mg/kg/day, DW12", "value": 68.7}, {"measurement": "UREA NITROGEN Change from Baseline, Mean (SD)", "setting": "0.10 mg/kg/day, DW12", "value": "0.1 (1.47)"}, {"measurement": "UREA NITROGEN Change from Baseline, Median", "setting": "0.10 mg/kg/day, DW12", "value": 0.0}, {"measurement": "UREA NITROGEN, Mean (SD)", "setting": "0.10 mg/kg/day, DW12", "value": "6.3 (2.08)"}, {"measurement": "UREA NITROGEN, Median", "setting": "0.10 mg/kg/day, DW12", "value": 5.9}, {"measurement": "CREATININE (RATE BLANKED), Median", "setting": "0.10 mg/kg/day, DW12", "value": 84.5, "unit": "µmol/L"}, {"measurement": "CREATININE (RATE BLANKED) Change from Baseline, Mean (SD)", "setting": "0.10 mg/kg/day, DW16", "value": "0.6 (11.86)"}, {"measurement": "CREATININE (RATE BLANKED) Change from Baseline, Median", "setting": "0.10 mg/kg/day, DW16", "value": 0.0}, {"measurement": "CREATININE (RATE BLANKED), Mean (SD)", "setting": "0.10 mg/kg/day, DW16", "value": "84.2 (21.85)"}, {"measurement": "GFR Change from Baseline, Mean (SD)", "setting": "0.10 mg/kg/day, DW16", "value": "1.1 (13.73)"}, {"measurement": "GFR Change from Baseline, Median", "setting": "0.10 mg/kg/day, DW16", "value": 1.1}, {"measurement": "GFR, Mean (SD)", "setting": "0.10 mg/kg/day, DW16", "value": "78.3 (23.12)"}, {"measurement": "GFR, Median", "setting": "0.10 mg/kg/day, DW16", "value": 77.5}, {"measurement": "UREA NITROGEN Change from Baseline, Mean (SD)", "setting": "0.10 mg/kg/day, DW16", "value": "−0.2 (1.47)"}, {"measurement": "UREA NITROGEN Change from Baseline, Median", "setting": "0.10 mg/kg/day, DW16", "value": 0.0}, {"measurement": "UREA NITROGEN, Mean (SD)", "setting": "0.10 mg/kg/day, DW16", "value": "6.0 (1.86)"}, {"measurement": "UREA NITROGEN, Median", "setting": "0.10 mg/kg/day, DW16", "value": 6.1}, {"measurement": "CREATININE (RATE BLANKED), Median", "setting": "0.10 mg/kg/day, DW16", "value": 87.5, "unit": "µmol/L"}, {"measurement": "CREATININE (RATE BLANKED) Change from Baseline, Mean (SD)", "setting": "0.10 mg/kg/day, DW20", "value": "2.6 (12.05)"}, {"measurement": "CREATININE (RATE BLANKED) Change from Baseline, Median", "setting": "0.10 mg/kg/day, DW20", "value": 0.0}, {"measurement": "CREATININE (RATE BLANKED), Mean (SD)", "setting": "0.10 mg/kg/day, DW20", "value": "86.6 (20.44)"}, {"measurement": "GFR Change from Baseline, Mean (SD)", "setting": "0.10 mg/kg/day, DW20", "value": "−0.6 (16.16)"}, {"measurement": "GFR Change from Baseline, Median", "setting": "0.10 mg/kg/day, DW20", "value": 1.5}, {"measurement": "GFR, Mean (SD)", "setting": "0.10 mg/kg/day, DW20", "value": "77.3 (26.45)"}]}]}
